In ChEMBL document CHEMBL1201862, “PubChem BioAssay data set” (2004):
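These data come from cells grown in 96-well plates and exposed to compound for 48 hours at five concentrations. GI50 = concentration required for 50% inhibition of growth.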 Activity calls are given as the source filed them. Cut-off read from the data, not from the text of the source: active = GI50 up to about 1.1 µM and inactive = higher. Where a SMILES comes first, the peptide text is derived from it.

Experiments:
Assay in all cases: NCI tumour cell line growth inhibition, 48 h
[1] = test system: UACC-62
[2] = test system: RXF 393
[3] = test system: IGROV-1
[4] = test system: SR
[5] = test system: MDA-MB-231
[6] = test system: SK-MEL-5
[7] = test system: UO-31
[8] = test system: HCT-116
[9] = test system: OVCAR-5
[10] = test system: EKVX
[11] = test system: Hs-578T
[12] = test system: SF-539
[13] = test system: HCT-15
[14] = test system: OVCAR-3
[15] = test system: CCRF-CEM
[16] = test system: U-251
[17] = test system: HL-60
[18] = test system: DLD-1
[19] = test system: M19-MEL
[20] = test system: NCI-H522

| SMILES | GI50 [1] | GI50 [2] | GI50 [3] | GI50 [4] | GI50 [5] | GI50 [6] | GI50 [7] | GI50 [8] | GI50 [9] | GI50 [10] | GI50 [11] | GI50 [12] | GI50 [13] [µM] | GI50 [14] | GI50 [15] | GI50 [16] | GI50 [17] | GI50 [18] | GI50 [19] | GI50 [20] |
| --- | --- | --- | --- | --- | --- | --- | --- | --- | --- | --- | --- | --- | --- | --- | --- | --- | --- | --- | --- | --- |
| CO/N=C1\CC(NC(=O)CNC(=O)OC(C)(C)C)c2ccsc21 (stereo not given) | > 100 µM (inactive) | > 100 µM (inactive) | > 100 µM (inactive) | > 100 µM (inactive) | > 100 µM (inactive) | 81.5 µM (inactive) | > 100 µM (inactive) | > 100 µM (inactive) | > 100 µM (inactive) | > 100 µM (inactive) | > 100 µM (inactive) | > 100 µM (inactive) | > 100 | > 100 µM (inactive) | > 100 µM (inactive) | > 100 µM (inactive) | > 100 µM (inactive) | – | – | – |
| COc1nc(NC2OCC(OC(C)=O)C(OC(C)=O)C2OC(C)=O)c(/N=C(\C)C(C)=O)c(=O)n1C (stereo not given) | – | > 100 µM (inactive) | > 100 µM (inactive) | > 100 µM (inactive) | – | > 100 µM (inactive) | > 100 µM (inactive) | > 100 µM (inactive) | > 100 µM (inactive) | > 100 µM (inactive) | – | > 100 µM (inactive) | > 100 | – | > 100 µM (inactive) | > 100 µM (inactive) | > 100 µM (inactive) | > 100 µM (inactive) | – | – |
| Nc1nc(=O)[nH]c2c1cnn2Cc1ccccc1 | – | 1.4 µM (inactive) | > 100 µM (inactive) | > 100 µM (inactive) | – | > 100 µM (inactive) | > 100 µM (inactive) | > 100 µM (inactive) | 1.47 µM (inactive) | > 100 µM (inactive) | – | > 100 µM (inactive) | > 100 | – | > 100 µM (inactive) | 1.4 µM (inactive) | > 100 µM (inactive) | > 100 µM (inactive) | – | – |
| N#CCCN(CCC#N)c1ccc(/C=C(\NC(=O)c2cc([N+](=O)[O-])ccc2Cl)C(=O)Nc2ccccc2)cc1 | 4.52 µM (inactive) | > 100 µM (inactive) | > 100 µM (inactive) | 36.3 µM (inactive) | – | > 100 µM (inactive) | > 100 µM (inactive) | 78.7 µM (inactive) | 99.8 µM (inactive) | > 100 µM (inactive) | – | 49.7 µM (inactive) | 4.55 | > 100 µM (inactive) | 5.87 µM (inactive) | > 100 µM (inactive) | – | 18.5 µM (inactive) | > 100 µM (inactive) | 44.2 µM (inactive) |
| Cc1cc(O)nc(NN2C(Cl)C(=O)C2c2ccc([N+](=O)[O-])cc2)n1 (stereo not given) | 3.31 µM (inactive) | 0.76 µM (active) | 4.03 µM (inactive) | 6.15 µM (inactive) | – | 13.5 µM (inactive) | 13.9 µM (inactive) | 9.38 µM (inactive) | 25.1 µM (inactive) | 23 µM (inactive) | – | 10.8 µM (inactive) | 7.52 | 6.53 µM (inactive) | 2.15 µM (inactive) | 13.8 µM (inactive) | 4.12 µM (inactive) | – | 4.26 µM (inactive) | – |
| CCOc1ccc(/C=C2\N=C(c3ccccc3)OC2=O)cc1 | > 100 µM (inactive) | > 100 µM (inactive) | > 100 µM (inactive) | > 100 µM (inactive) | – | > 100 µM (inactive) | > 100 µM (inactive) | – | > 100 µM (inactive) | > 100 µM (inactive) | > 100 µM (inactive) | > 100 µM (inactive) | > 100 | > 100 µM (inactive) | > 100 µM (inactive) | > 100 µM (inactive) | > 100 µM (inactive) | – | – | 48.5 µM (inactive) |
| NCCCCC(N)C(=O)N1CCN(c2nc(N3CCCC3)c3nc(Cl)c(NCc4ccccc4)nc3n2)CC1 (stereo not given) | 17.9 µM (inactive) | 15.9 µM (inactive) | 14.1 µM (inactive) | 18.1 µM (inactive) | 18.1 µM (inactive) | 18.1 µM (inactive) | 17.5 µM (inactive) | 16.6 µM (inactive) | 19.1 µM (inactive) | 18.7 µM (inactive) | 19.4 µM (inactive) | 18.5 µM (inactive) | 17.7 | 18.9 µM (inactive) | 15.5 µM (inactive) | 18.9 µM (inactive) | 17 µM (inactive) | – | – | 19.3 µM (inactive) |
| CCCCN1C(=O)NC(Cc2ccccc2)C1=O (stereo not given) | – | > 100 µM (inactive) | – | > 100 µM (inactive) | – | – | > 100 µM (inactive) | – | > 100 µM (inactive) | > 100 µM (inactive) | – | > 100 µM (inactive) | – | – | – | > 100 µM (inactive) | – | > 100 µM (inactive) | > 100 µM (inactive) | > 100 µM (inactive) |
| COC1OCC(O)C(NC(=O)N(C)N=O)C1O (stereo not given) | > 100 µM (inactive) | > 100 µM (inactive) | > 100 µM (inactive) | – | – | > 100 µM (inactive) | > 100 µM (inactive) | > 100 µM (inactive) | > 100 µM (inactive) | > 100 µM (inactive) | – | > 100 µM (inactive) | > 100 | > 100 µM (inactive) | > 100 µM (inactive) | > 100 µM (inactive) | – | > 100 µM (inactive) | > 100 µM (inactive) | > 100 µM (inactive) |
| NC(=O)C1CCCN1C(=O)C(N)Cc1ccccc1 (stereo not drawn) (H-Phe-Pro-NH2; configuration not given here) | > 100 µM (inactive) | – | > 100 µM (inactive) | > 100 µM (inactive) | > 100 µM (inactive) | > 100 µM (inactive) | > 100 µM (inactive) | > 100 µM (inactive) | > 100 µM (inactive) | > 100 µM (inactive) | – | – | > 100 | > 100 µM (inactive) | > 100 µM (inactive) | > 100 µM (inactive) | > 100 µM (inactive) | – | – | > 100 µM (inactive) |
| COC(=O)C[C@](O)(CCC(C)(C)O)C(=O)O[C@@H]1C(OC)=C[C@]23CCCN2CCc2cc4c(cc2[C@H]13)OCO4 [HARRINGTONINE] | 0.23 µM (active) | 0.103 µM (active) | 0.0505 µM (active) | – | – | 0.0557 µM (active) | 1.7 µM (inactive) | 0.0336 µM (active) | 0.233 µM (active) | 0.0802 µM (active) | – | 0.0295 µM (active) | 0.379 | 0.0598 µM (active) | 0.0508 µM (active) | 0.0515 µM (active) | 0.0403 µM (active) | 0.121 µM (active) | 0.107 µM (active) | 0.0206 µM (active) |
